Experimental data reported in article PMC12006963, “Application of Deuterium in an M1 Positive Allosteric Modulator Back-Up Program: The Discovery of VU6045422” (ACS Chemical Neuroscience, 2025).
Read-outs that look alike come from different tables or passages of the source.

What was measured:
[1] = In vivo IV/PO pharmacokinetics, rat; conditions: rat (SD), dose iv/po mg/kg: 1 1/3, 3 1/10, 5 1/10; for clearance / Vd / half-life: Sprague-Dawley, plasma, 1 mg/kg; for clearance: read-out: CLp; for Vd: read-out: Vss; for half-life: read-out: elimination t1/2 (converted)
[2] = Predicted hepatic clearance, hepatic microsomes (human); type: in vitro ADME
Protocol: After a 5 min preincubation, the reaction was initiated by the addition of NADPH (1 mM). At selected time intervals (0, 3, 7, 15, 25, and 45 min), aliquots were taken and subsequently placed into a 96-well plate containing cold acetonitrile with internal standard (50 ng/mL carbamazepine). Plates were then centrifuged at 3000 rcf (4 °C) for 10 min, and the supernatant was transferred to a separate 96-well plate and diluted 1:1 with water for LC/MS/MS analysis. The in vitro half-life ( 1/2, min, Eq. 1), intrinsic clearance (CLint, mL/min/kg, Eq. 2), and subsequent predicted hepatic clearance (CLhep, mL/min/kg, Eq. 3) was determined employing the […]
where k represents the slope from linear regression analysis of the natural log percent remaining of a test compound as a function of incubation time […]
(2) CLint = in vitroT1/2 x mg microsomes x gram liver x kg body wt ascale-up factors: of 20 (human) or 45 (rat) […]
where Qh (hepatic blood flow, mL/min/kg) is 21 (human) or 70 (rat).
LC/MS/MS Bioanalysis of Samples from Plasma Protein Binding and Intrinsic Clearance […]
Samples were analyzed on a Thermo Electron TSQ Quantum Ultra triple quad mass spectrometer (San Jose, CA) via electrospray ionization (ESI) with two Themo Electron Accella pumps (San Jose, CA), and a Leap Technologies CTC PAL autosampler (Carrboro, NC). Analytes were separated by gradient elution on a dual column system with two Thermo Hypersil Gold (2.1 x 30 mm, 1.9 µm) columns (San Jose, CA) thermostated at 40 °C. HPLC mobile phase A was 0.1% formic acid in water and mobile phase B was 0.1% formic acid in acetonitrile. The gradient started […]
for 0.2 min; returned to 10% B in 0.1 min. The total run time was 1.3 min and the HPLC flow rate was 0.8 mL/min. While pump 1 ran the gradient method, pump 2 equilibrated the alternate column isocratically at 10% B. Compound optimization, data collection, and processing was performed using Thermo Electron's QuickQuan software (v2.3) and Xcalibur (v2.0.7 SP1).
In vivo DMPK experimental:
Determination of brain to plasma ratio: […]

[3] = Plasma protein binding, equilibrium dialysis (rat); type: in vitro ADME; conditions: pH 7.4, read-out: fu,plasma
Protocol: page 5: Drug Metabolism Methods: In vitro Plasma protein binding and Brain homogenate binding: Determination of fraction unbound (f u) in plasma was conducted in vitro via equilibrium dialysis using HTDialysis (HTD) membrane plates. The top half of the plate was filled with 100 uL of Dubelco’s Phosphate Buffered Saline, pH 7.4 (DPBS). Compounds were diluted into plasma from each species (5 µM final concentration), which was aliquoted in triplicate to the ‘bottom half’ of the prepared HTD plate wells. The HTD plate was sealed and incubated for 6 hours at 37 °C. Following incubation, each well (both top and bottom halves) were transferred (20 µL) to the corresponding wells of a 96- shallow-well (V-bottom) plate. The daughter plates were then matrix-matched (DPBS side wells received equal volume of plasma, and plasma side wells received equal volume of DPBS), and extraction solution (120 µL; acetonitrile containing 50 nM carbamazepine as IS) was added to all wells of both daughter plates to precipitate protein and extract test article. The plates were then sealed and centrifuged (3500 rcf) for 10 minutes at ambient temperature. Supernatant (60 µL) from each well of the daughter plates was then transferred to the corresponding wells of new daughter plates (96-shallow-well, V bottom) containing water (Milli-Q, 60 µL/well), and the plates were sealed in preparation for LC-MS/MS analysis (see LC-MS/MS analysis method below). The unbound fraction (f u) was calculated following the equation below, and mean values for each species were calculated from 3 replicates. […] Fraction unbound for both plasma and brain samples was determined using Equation 4. f = Concbuffer u Concplasma Equation 4 Determination of fraction unbound in plasma. […]

CYP 2D6 = CYP 2D6 (Homo sapiens, UniProt P10635); experiment: CYP inhibition 2D6; type: in vitro ADME
Excerpt: Table 1 Pharmacology and In Vitro DMPK Profiles of M1 PAMs 1, 3, and 5 | column: 1; 3; 5

M1 = biological target: T1, M1 (Homo sapiens, UniProt P11229); experiment: Calcium mobilization, human M1 CHO cells (agonist and PAM modes); type: cell-based; conditions: for M1 agonism: in words
T1 construct: expressed in transfected cells
T1 sequence (P11229 1-460): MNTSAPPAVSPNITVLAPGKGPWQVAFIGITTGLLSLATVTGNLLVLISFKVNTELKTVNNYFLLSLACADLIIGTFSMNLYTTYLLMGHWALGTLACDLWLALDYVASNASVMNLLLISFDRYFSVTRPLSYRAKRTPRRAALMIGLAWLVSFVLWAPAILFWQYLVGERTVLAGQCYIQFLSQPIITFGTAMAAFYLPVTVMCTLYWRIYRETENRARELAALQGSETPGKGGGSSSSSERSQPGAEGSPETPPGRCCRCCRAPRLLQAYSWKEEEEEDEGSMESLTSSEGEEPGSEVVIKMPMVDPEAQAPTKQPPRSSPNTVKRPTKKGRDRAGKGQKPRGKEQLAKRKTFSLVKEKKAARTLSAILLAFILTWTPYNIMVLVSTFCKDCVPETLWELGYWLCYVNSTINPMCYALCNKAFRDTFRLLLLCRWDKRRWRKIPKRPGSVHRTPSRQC

[4] = PAM mode, read-out: hM1 PAM EC50
[5] = agonist mode, read-out: hM1 Agonist EC50

Chain of CYP 2D6 (P10635 whole entry): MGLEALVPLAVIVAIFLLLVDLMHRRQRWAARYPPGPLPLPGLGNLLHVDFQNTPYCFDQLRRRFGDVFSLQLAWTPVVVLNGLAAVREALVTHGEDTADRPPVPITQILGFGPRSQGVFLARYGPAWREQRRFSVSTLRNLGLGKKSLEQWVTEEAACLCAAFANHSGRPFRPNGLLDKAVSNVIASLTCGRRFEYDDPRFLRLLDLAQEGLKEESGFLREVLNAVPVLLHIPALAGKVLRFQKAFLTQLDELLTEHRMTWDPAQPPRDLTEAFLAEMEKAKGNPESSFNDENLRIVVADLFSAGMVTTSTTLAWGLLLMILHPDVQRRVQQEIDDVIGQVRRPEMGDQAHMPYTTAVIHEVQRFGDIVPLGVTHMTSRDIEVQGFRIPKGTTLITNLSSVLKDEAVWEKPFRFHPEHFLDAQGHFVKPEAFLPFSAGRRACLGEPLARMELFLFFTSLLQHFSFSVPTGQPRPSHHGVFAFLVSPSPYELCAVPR

Compound | clearance [1] | Vd [1] | half-life [1] | F (%) po [1] | Predicted CLhep [2] | fraction unbound at 6 h, 5 µM [3] | IC50 (CYP 2D6) | hM1 PAM AChmax (%) (M1) | EC50 (M1; [4]) | EC50 (M1; [5]) | hM1 PAM AChmax (%) (pEC50 line) (M1; mean ± spread) | M1 agonism (M1) | EC50 (M1; mean ± spread, n in cell, read-out: hM1 PAM pEC50 (converted))
Cn1cc2c(-c3cc(F)c(CN4Cc5ncccc5C4=O)c(F)c3)cccc2n1 [compound 1] | 3 mL/min/kg | 0.67 L/kg | 3 h | 93% | 1.3 mL/min/kg | 0.028 | > 30000 nM | 80% | 492 nM | > 30000 nM | 71±9.9% | – | –
[2H]C1([2H])c2ncccc2C(=O)N1Cc1c(F)cc(-c2cccc3nn(C)cc23)cc1F [compound 3] | 5.5 mL/min/kg | 1.4 L/kg | 3 h | 100% | 10.6 mL/min/kg | 0.034 | > 30000 nM | 81% | 624 nM | > 30000 nM | 78±2.2% | minimal M1 agonism | –
[2H]C1([2H])c2ncccc2C(=O)N1Cc1c(F)cc(-c2cccc3nn(C([2H])([2H])[2H])cc23)cc1F [compound 5] | 4.8 mL/min/kg | 1.1 L/kg | 3.6 h | 100% | 8.0 mL/min/kg | 0.026 | > 30000 nM | 80% | 192 nM | > 30000 nM | 82±1.8% | minimal M1 agonism | 182 nM
